Test system: ischemia-reperfusion BBB model
Assay: Effects of radical scavenger edaravone on ischemia-reperfusion BBB model (TEER and Na—F permeability)
Assay type: cell-based, rat
Details: edaravone added at the end of the 6 h ischemia period; 3 h reperfusion; FIG. 10
Protocol: TEER was measured with ENDOHM (manufactured by WPI). Then, the experiment on Na—F permeability was conducted.
1/PSapper=1/PSmembrane+1/PStrans.
FIG. 4 is a graph showing variation per day of transendothelial electrical resistance value measurement results of 7 coculture models prepared by the method shown in Example 4. FIG. 5 is a graph comparing transendothelial electrical resistance value measurement results among 7 coculture models prepared by the method shown in Example 4. Transendothelial Electrical Resistance (TEER) was measured with ENDOHM (manufactured by WPI). The electrical resistance value of each BBB model was measured from 2 to 7 days after model preparation. The TEER values of E00, E0A, and E0P were calculated by subtracting therefrom the electrical resistance value of only the membrane. The TEER values of EA0 ad EAP were calculated by subtracting therefrom the electrical resistance value of the membrane on which only the astrocytes were cultured. The TEER values of EP0 ad EPA were calculated by subtracting therefrom the electrical resistance value of the membrane on which only the pericytes were cultured. […]

In the case of CC1=NN(c2ccccc2)C(=O)C1 [edaravone], the “reduction in TEER attributed to ischemia-reperfusion (reduction in tight junction function)” value is reported as “significantly suppressed” and the “rise in Na—F permeability attributed to ischemia-reperfusion (reduction in tight junction function)” value is reported as “significantly suppressed”.
